Source: patent publication US6737383B1, “Herbicidal oxadiazolidines” (priority 1999, dated 2004)

Columns and labels:
wild oat = assay: Test B pre/postemergence wild oat; type: in vivo, Avena fatua; conditions: for Plant response rating, Wild oats: scale of 0 to 10 where 0 is no effect and 10 is complete control
In short: (§1)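 Test chemicals in a non-phytotoxic solvent mixture with surfactant were sprayed preemergence onto planted seeds and postemergence onto plants 2 to 18 cm tall (1- to 4-leaf stage). After twelve to sixteen days in a greenhouse, injury was visually rated against untreated controls from 0 (no effect) to 10 (complete control).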

giant foxtail = assay: Test B pre/postemergence giant foxtail; type: in vivo, Setaria faberii
In short: as §1

pigweed = assay: Test B pre/postemergence pigweed; type: in vivo, Amaranthus retroflexus; conditions: for Plant response rating, Redroot pigweed: scale of 0 to 10 where 0 is no effect and 10 is complete control
In short: as §1

rice = assay: Test B flood test rice; type: in vivo, Oryza sativa
In short: (§2)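 Flood test on plants grown to the 2-leaf stage; treated plants kept in greenhouse twelve to sixteen days, then visually rated against controls on a 0 (no effect) to 10 (complete control) scale.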

corn = assay: Test B pre/postemergence corn; type: in vivo, Zea mays
In short: as §1

wheat = assay: Test B pre/postemergence wheat; type: in vivo, Triticum aestivum; conditions: for Plant response rating, Wheat: scale of 0 to 10 where 0 is no effect and 10 is complete control
In short: as §1

sugar beet = assay: Test B pre/postemergence sugar beet; type: in vivo, Beta vulgaris; conditions: for Plant response rating, Sugarbeets: scale of 0 to 10 where 0 is no effect and 10 is complete control
In short: as §1

duck salad = assay: Test B flood test duck salad; type: in vivo, Heteranthera limosa
In short: as §2

rape = assay: Test B pre/postemergence rape; type: in vivo, Brassica napus; conditions: for Plant response rating, Rape: scale of 0 to 10 where 0 is no effect and 10 is complete control
In short: as §1

soybean = assay: Test B pre/postemergence soybean; type: in vivo, Glycine max; conditions: for Plant response rating, Soybean: scale of 0 to 10 where 0 is no effect and 10 is complete control
In short: as §1

purple nutsedge = assay: Test B pre/postemergence purple nutsedge; type: in vivo, Cyperus rotundus; conditions: for Plant response rating, Nutsedge: scale of 0 to 10 where 0 is no effect and 10 is complete control
In short: as §1

blackgrass = assay: Test B pre/postemergence blackgrass; type: in vivo, Alopecurus myosuroides
In short: as §1

bamyardgrass = assay: Test B flood test barnyardgrass; type: in vivo, Echinochloa crus-galli
In short: as §2

surinam grass = assay: Test B pre/postemergence surinam grass; type: in vivo, Brachiaria decumbens
In short: as §1

cocklebur = assay: Test B pre/postemergence cocklebur; type: in vivo, Xanthium strumarium
In short: as §1

crabgrass = assay: Test B pre/postemergence crabgrass; type: in vivo, Digitaria sanguinalis
In short: as §1

smallflower flatsedge = assay: Test B flood test smallflower flatsedge; type: in vivo, Cyperus difformis
In short: as §2

morningglory = assay: Test B pre/postemergence morningglory; type: in vivo, Ipomoea hederacea; conditions: for Plant response rating, Morningglory: scale of 0 to 10 where 0 is no effect and 10 is complete control
In short: as §1

velvetleaf = assay: Test B pre/postemergence velvetleaf; type: in vivo, Abutilon theophrasti; conditions: for Plant response rating, Velvetleaf: scale of 0 to 10 where 0 is no effect and 10 is complete control
In short: as §1

[1] = Postemergence, Rate 250 g/ha, scale 0 to 10
[2] = Preemergence, Rate 250 g/ha, scale 0 to 10, 0 is no effect, 10 is complete control
[3] = Preemergence, Rate 500 g/ha, scale 0 to 10, 0 is no effect, 10 is complete control
[4] = Rate 62 g/ha, Postemergence, scale 0 to 10 (0 no effect, 10 complete control)
[5] = Rate 125 g/ha, Postemergence, scale 0 to 10, 0 is no effect, 10 is complete control
[6] = Postemergence, Rate 500 g/ha, scale of 0 to 10 where 0 is no effect and 10 is complete control
[7] = Preemergence, Rate 62 g/ha, scale of 0 to 10 where 0 is no effect and 10 is complete control
[8] = Preemergence, Rate 125 g/ha, scale of 0 to 10 where 0 is no effect and 10 is complete control
[9] = Rate 62 g/ha, flood test species, Pre-emergence, visual evaluation after twelve to sixteen days
[10] = Rate 125 g/ha, under heading Pre-emergence, flood test species, visual evaluation after twelve to sixteen days
[11] = Rate 250 g/ha, Pre-emergence (flood test species), scale 0 to 10, 0 is no effect, 10 is complete control
[12] = Rate 500 g/ha, Pre-emergence, flood test species, scale 0 to 10 (0 no effect, 10 complete control)

C=CC(CC)n1c(=O)on(C(=O)N(c2ccccc2)C(C)C)c1=O (stereo not drawn) [Compound 455]
3: Plant response rating, Wild oats (wild oat; Preemergence, Rate 125 g/ha) | Sugarbeets plant response rating (sugar beet; [2]) | Plant response rating, Rape (rape; Preemergence, Rate 125 g/ha) | Nutsedge plant response rating (purple nutsedge; [3]) | Plant response rating, Blackgrass (blackgrass; [7]) | Plant response rating, B. signalgrass (surinam grass; [8]) | Morningglory plant response rating (morningglory; [4]) | Velvetleaf plant response rating (velvetleaf; [1])
6: Sugarbeets plant response rating (sugar beet; [3]) | Blackgrass plant response rating (blackgrass; [2]) | Blackgrass plant response rating (blackgrass; [4]) | Velvetleaf plant response rating (velvetleaf; [3])
10: Wild oats plant response rating (wild oat; [3]) | Plant response rating, Giant foxtail (giant foxtail; [7]) | Plant response rating, Giant foxtail (giant foxtail; [8]) | Giant foxtail plant response rating (giant foxtail; [2]) | Giant foxtail plant response rating (giant foxtail; [3]) | Plant response rating, Redroot pigweed (pigweed; Preemergence, Rate 125 g/ha) | Redroot pigweed plant response rating (pigweed; [2]) | Redroot pigweed plant response rating (pigweed; [3]) | Crabgrass plant response rating (crabgrass; [2]) | Crabgrass plant response rating (crabgrass; [3])
2: Redroot pigweed plant response rating (pigweed; [4]) | Redroot pigweed plant response rating (pigweed; [5]) | Plant response rating, Corn (corn; [8]) | Wheat plant response rating (wheat; [3]) | Soybean plant response rating (soybean; [3]) | Soybean plant response rating (soybean; [5]) | Plant response rating, Velvetleaf (velvetleaf; Preemergence, Rate 62 g/ha)
1: Plant response rating, Sugarbeets (sugar beet; Preemergence, Rate 125 g/ha) | Soybean plant response rating (soybean; [4]) | B. signalgrass plant response rating (surinam grass; Postemergence, Rate 250 g/ha, scale 0 to 10, 0 no effect, 10 complete control)
4: Corn plant response rating (corn; [2]) | Soybean plant response rating (soybean; [1]) | Plant response rating, Blackgrass (blackgrass; [8]) | Crabgrass plant response rating (crabgrass; [1]) | Crabgrass plant response rating (crabgrass; [4]) | Morningglory plant response rating (morningglory; [3]) | Plant response rating, Velvetleaf (velvetleaf; Preemergence, Rate 125 g/ha)
9: Wild oats plant response rating (wild oat; [2]) | Giant foxtail plant response rating (giant foxtail; [6]) | Rape plant response rating (rape; [3]) | Blackgrass plant response rating (blackgrass; [1]) | Blackgrass plant response rating (blackgrass; [6]) | B. signalgrass plant response rating (surinam grass; [2]) | B. signalgrass plant response rating (surinam grass; [3]) | Crabgrass plant response rating (crabgrass; [6])
7: Giant foxtail plant response rating (giant foxtail; [1]) | Giant foxtail plant response rating (giant foxtail; [4]) | Giant foxtail plant response rating (giant foxtail; [5]) | Plant response rating, Redroot pigweed (pigweed; Preemergence, Rate 62 g/ha) | Corn plant response rating (corn; [3]) | Blackgrass plant response rating (blackgrass; [3])
0: Wild oats plant response rating (wild oat; [1]) | Plant response rating, Wild oats (wild oat; Preemergence, Rate 62 g/ha) | Wild oats plant response rating (wild oat; [4]) | Wild oats plant response rating (wild oat; [5]) | Plant response rating, Rice (0 to 10 scale, 0 is no effect, 10 is complete control) (rice; [9]) | Rice plant response rating (0 to 10 scale, 0 is no effect, 10 is complete control) (rice; [10]) | Rice plant response rating (rice; [11]) | Rice plant response rating (rice; [12]) | Corn plant response rating (corn; [1]) | Corn plant response rating (corn; [6]) | Plant response rating, Corn (corn; [7]) | Corn plant response rating (corn; [4]) | Corn plant response rating (corn; [5]) | Wheat plant response rating (wheat; [1]) | Plant response rating, Wheat (wheat; Preemergence, Rate 62 g/ha) | Plant response rating, Wheat (wheat; Preemergence, Rate 125 g/ha) | Wheat plant response rating (wheat; [2]) | Wheat plant response rating (wheat; [4]) | Wheat plant response rating (wheat; [5]) | Sugarbeets plant response rating (sugar beet; [1]) | Plant response rating, Sugarbeets (sugar beet; Preemergence, Rate 62 g/ha) | Sugarbeets plant response rating (sugar beet; [4]) | Sugarbeets plant response rating (sugar beet; [5]) | Plant response rating, Ducksalad (0 to 10 scale, 0 is no effect, 10 is complete control) (duck salad; [9]) | Ducksalad plant response rating (0 to 10 scale, 0 is no effect, 10 is complete control) (duck salad; [10]) | Ducksalad plant response rating (duck salad; [11]) | Ducksalad plant response rating (duck salad; [12]) | Rape plant response rating (rape; [1]) | Plant response rating, Rape (rape; Preemergence, Rate 62 g/ha) | Rape plant response rating (rape; [4]) | Rape plant response rating (rape; [5]) | Plant response rating, Soybean (soybean; Preemergence, Rate 62 g/ha) | Plant response rating, Soybean (soybean; Preemergence, Rate 125 g/ha) | Soybean plant response rating (soybean; [2]) | Nutsedge plant response rating (purple nutsedge; [1]) | Plant response rating, Nutsedge (purple nutsedge; Preemergence, Rate 62 g/ha) | Plant response rating, Nutsedge (purple nutsedge; Preemergence, Rate 125 g/ha) | Nutsedge plant response rating (purple nutsedge; [2]) | Nutsedge plant response rating (purple nutsedge; [4]) | Nutsedge plant response rating (purple nutsedge; [5]) | Plant response rating, Barnyardgrass (0 to 10 scale, 0 is no effect, 10 is complete control) (bamyardgrass; [9]) | Barnyardgrass plant response rating (0 to 10 scale, 0 is no effect, 10 is complete control) (bamyardgrass; [10]) | Barnyardgrass plant response rating (bamyardgrass; [11]) | Barnyardgrass plant response rating (bamyardgrass; [12]) | Plant response rating, B. signalgrass (surinam grass; [7]) | B. signalgrass plant response rating (surinam grass; [4]) | B. signalgrass plant response rating (surinam grass; [5]) | Cocklebur plant response rating (cocklebur; [1]) | Cocklebur plant response rating (cocklebur; [6]) | Plant response rating, Cocklebur (cocklebur; [7]) | Plant response rating, Cocklebur (cocklebur; [8]) | Cocklebur plant response rating (cocklebur; [2]) | Cocklebur plant response rating (cocklebur; [3]) | Cocklebur plant response rating (cocklebur; [4]) | Cocklebur plant response rating (cocklebur; [5]) | Plant response rating, S. Flatsedge (0 to 10 scale, 0 is no effect, 10 is complete control) (smallflower flatsedge; [9]) | S. Flatsedge plant response rating (0 to 10 scale, 0 is no effect, 10 is complete control) (smallflower flatsedge; [10]) | S. Flatsedge plant response rating (smallflower flatsedge; [11]) | S. Flatsedge plant response rating (smallflower flatsedge; [12]) | Plant response rating, Morningglory (morningglory; Preemergence, Rate 62 g/ha) | Plant response rating, Morningglory (morningglory; Preemergence, Rate 125 g/ha) | Morningglory plant response rating (morningglory; [2]) | Velvetleaf plant response rating (velvetleaf; [4]) | Velvetleaf plant response rating (velvetleaf; [5])
8: Rape plant response rating (rape; [2]) | Blackgrass plant response rating (blackgrass; [5]) | Morningglory plant response rating (morningglory; [1]) | Morningglory plant response rating (morningglory; [5])
5: Redroot pigweed plant response rating (pigweed; [1]) | B. signalgrass plant response rating (surinam grass; [6]) | Plant response rating, Crabgrass (crabgrass; [7]) | Plant response rating, Crabgrass (crabgrass; [8]) | Velvetleaf plant response rating (velvetleaf; [2])
